SMILES strings stand for the structures. Activity calls are given as the source filed them. No cut-off for these calls is given here.

As a reminder, the IC50 is the concentration that inhibits the measured activity by half.

For assay [1], the system named is A549. Description: Cytotoxicity against human A549 cells assessed as reduction in cell viability after 24 hrs by MTT assay. Type of assay: functional, cell-based. Conditions: A549, 24 h.
Assay [2] concerns MDA-MB-231. Description: Cytotoxicity against human MDA-MB-231 cells assessed as reduction in cell viability after 24 hrs by MTT assay. Conditions: MDA-MB-231, 24 h. It is filed as functional, cell-based.
Assay [3] relates to HeLa. Description: Cytotoxicity against human HeLa cells assessed as reduction in cell viability after 24 hrs by MTT assay. Type of assay: functional, cell-based. On the technique in general: Formazan colour is commonly taken as a measure of viable cells.
Assay [4] concerns MCF7. In words: Cytotoxicity against human MCF7 cells assessed as reduction in cell viability after 24 hrs by MTT assay. It is filed as functional, cell-based. Conditions: MCF7, 24 h.
Assay [5] deals with A549. In words: Cell cycle arrest in human A549 cells assessed as accumulation at subG1 phase at 4 uM after 24 hrs by propidium iodide staining based flow cytometry (reference value: 1.11%). Type of assay: functional. (In general: A flow cytometer gives signals particle by particle.)
In assay [6] the test system is A549. Description: Cell cycle arrest in human A549 cells assessed as accumulation at G0/G1 phase at 4 uM after 24 hrs by propidium iodide staining based flow cytometry (reference value: 69.5%). It is filed as functional.
Assay [7] has as its system A549. Description: Cell cycle arrest in human A549 cells assessed as accumulation at S phase at 4 uM after 24 hrs by propidium iodide staining based flow cytometry (reference value: 8.85%). It is filed as functional.
For assay [8], the system named is A549. Description: Cell cycle arrest in human A549 cells assessed as accumulation at G2/M phase at 4 uM after 24 hrs by propidium iodide staining based flow cytometry (reference value: 21.58%). It is filed as functional.
Assay [9] deals with A549. Description: Induction of cell death in human A549 cells assessed as increase in LC3-2 expression after 24 hrs by Western blot analysis. Type of assay: functional, cell-based. In general terms: Immunoblotting shows a protein as a band on a membrane.
The subject of assay [10] is A549. In words: Inhibition of PI3K/Akt/mTOR signalling in human A549 cells assessed as downregulation of Akt expression at 4 uM after 24 hrs by Western blot analysis. It is filed as cell-based.
The test system of assay [11] is A549. In words: Induction of autophagy in human A549 cells assessed as increase in Atg7 expression after 24 hrs by Western blot analysis. It is filed as functional, cell-based.
In assay [12] the test system is A549. Description: Inhibition of PI3K/Akt/mTOR signalling in human A549 cells assessed as downregulation of PI3K expression at 4 uM after 24 hrs by Western blot analysis. It is filed as cell-based.
Assay [13] relates to A549. Description: Inhibition of PI3K/Akt/mTOR signalling in human A549 cells assessed as reduction in Akt phosphorylation at Ser-473 residue at 4 uM after 24 hrs by Western blot analysis. Type of assay: cell-based.
Assay [14] relates to A549. In words: Inhibition of PI3K/Akt/mTOR signalling in human A549 cells assessed as downregulation of mTOR expression at 4 uM after 24 hrs by Western blot analysis. It is filed as cell-based.
Assay [15] has as its system A549. Description: Inhibition of RAS/MEK/ERK signalling in human A549 cells assessed as decrease in phosphorylated MEK1/2 level at 4 uM after 24 hrs by Western blot analysis. Type of assay: cell-based.
Assay [16] deals with A549. In words: Inhibition of RAS/MEK/ERK signalling in human A549 cells assessed as decrease in phosphorylated ERK1/2 level at 4 uM after 24 hrs by Western blot analysis. Type of assay: cell-based.
For assay [17], the system named is A549. Description: Upregulation of PTEN expression in human A549 cells at 4 uM after 24 hrs by Cy-3 staining based immunoblot analysis. Type of assay: functional, cell-based.
For assay [18], the system named is A549. Description: Induction of cell death in human A549 cells assessed as LC3-mediated cytoplasmic vacuolation by Hoechst staining based assay. Type of assay: functional.

On to `CC(C)(C)N1/C(=N/c2ccc(Cl)c(C(F)(F)F)c2)SCC1(O)C(F)(F)F` (stereo unspecified), for which the IC50 in assay [1] amounted to 3.26 µM; in assay [2] it was 4.03 µM; in assay [3], 5.54 µM; in [4], 32.3 µM. For the same compound, the Activity came to 8.63% in [5], 82.31% in assay [6], 3.05% in assay [7] and 6.79% in assay [8]. For the same compound, the outcome in assay [9], in assay [11] and in assay [17] was Active. The inhibition result in assay [10], in [12], in [13], in [14], in assay [15] and in [16] was “Active” each time.

Turning to `OC1(C(F)(F)F)CS/C(=N\c2ccc(Cl)c(C(F)(F)F)c2)N1Cc1cccs1` (stereo unspecified), the concentration for half-maximal inhibition (IC50) in [1] was found to be 3.57 µM; in assay [2], 4.48 µM; in assay [3] it was 6.41 µM; in assay [4] it was 11.4 µM. For the same compound, the Activity is recorded as 3.57% in [5], 75.3% in assay [6], 5.81% in [7] and 16.15% in assay [8]. Also, the outcome in assay [18], in assay [9], in assay [11] and in assay [17] was Active. The inhibition result in assay [10], in assay [12], in assay [13], in assay [14], in assay [15] and in assay [16] was “Active” in each case.

`OC1(C(F)(F)F)CS/C(=N\c2ccccc2)N1C1CCCCC1` (stereo unspecified): the 50% inhibitory concentration (IC50) is 13.8 µM in assay [1], 22.5 µM in [2], 28.2 µM in assay [3] and 30.1 µM in assay [4].

Consider `OC1(C(F)(F)F)CS/C(=N\c2ccccc2)N1c1ccccc1` (stereo unspecified), for which the concentration for half-maximal inhibition (IC50) was found to be 18.6 µM in [1], 20.9 µM in [2], 29.4 µM in [3] and 25 µM in [4].

Consider `OC1(C(F)(F)F)CS/C(=N\c2ccccc2)N1CCc1c[nH]c2ccccc12` (stereo unspecified), for which the IC50 in [1] was found to be 10.6 µM; in [2], 20.6 µM; in [3], 27.7 µM; in assay [4] it was 26.6 µM.

`OC1(C(F)(F)F)CS/C(=N\c2ccc(Cl)c(C(F)(F)F)c2)N1CCc1ccccn1` (stereo unspecified): the half-maximal inhibitory concentration (IC50) in assay [1] worked out at 6.02 µM; in assay [2] it was 19.6 µM; in assay [3] it was 7.12 µM; in assay [4], 11.3 µM.

As for `OC1(C(F)(F)F)CS/C(=N\c2ccccc2)N1Cc1ccco1` (stereo unspecified), the IC50 is 8.26 µM in [1], 21.6 µM in [2], 24.8 µM in [3] and 29.4 µM in assay [4].

Take `OC1(C(F)(F)F)CS/C(=N\c2ccc(C(F)(F)F)cc2)N1Cc1ccco1` (stereo unspecified): the half-maximal inhibitory concentration (IC50) in assay [1] stood at 13.1 µM; in [2], 21.7 µM; in assay [3] it was 19.7 µM; in assay [4], 25.1 µM.

On to `CCCN1/C(=N/c2ccccc2)SCC1(O)C(F)(F)F` (stereo unspecified), for which the IC50 in [1] came out at 14.3 µM; in [2] it was 18.7 µM; in assay [3] it was 24.4 µM; in assay [4] it was 22.5 µM.

Regarding `OC1(C(F)(F)F)CS/C(=N\c2ccc(Cl)c(C(F)(F)F)c2)N1CCN1CCOCC1` (stereo unspecified), the half-inhibitory concentration (IC50) in [1] came out at 4.15 µM; in assay [2], 5.92 µM; in [3], 6.24 µM; in assay [4], 18.2 µM. Further, the Activity in assay [5] is reported as 6.04%; in [6], 81.78%; in assay [7], 1.89%; in assay [8] it was 10.63%. For the same compound, the outcome in [9], in assay [11] and in [17] was Active. For the same compound, the inhibition result in assay [10], in assay [12], in assay [13], in [14], in assay [15] and in [16] was “Active” in each case.

In the case of `OC1(C(F)(F)F)CS/C(=N\c2ccc(Cl)c(C(F)(F)F)c2)N1Cc1ccco1` (stereo unspecified), the half-inhibitory concentration (IC50) is 3.82 µM in assay [1], 5.12 µM in assay [2], 5.84 µM in assay [3] and 15.1 µM in assay [4]. Besides, the Activity in assay [5] was 4.99%; in assay [6], 79.77%; in assay [7], 4.11%; in [8], 11.8%. The outcome in assay [18], in assay [9], in [11] and in assay [17] was Active. The inhibition entry in [10], in assay [12], in [13], in assay [14], in assay [15] and in assay [16] was “Active” in each case.

As to `COc1ccc(N2/C(=N/c3ccc(C(F)(F)F)cc3)SCC2(O)C(F)(F)F)cc1` (stereo unspecified), the IC50 worked out at 15.2 µM in assay [1], 20.6 µM in assay [2], 16.8 µM in assay [3] and 29.2 µM in assay [4].

In the case of `OC1(C(F)(F)F)CS/C(=N\c2ccc(F)cc2)N1c1ccccc1` (stereo unspecified), the IC50 in assay [1] came out at 17.1 µM; in assay [2] it was 19.6 µM; in [3] it was 32.4 µM; in assay [4] it was 25.8 µM.

Take `OC1(C(F)(F)F)CS/C(=N\c2ccc(C(F)(F)F)cc2)N1CCc1ccccn1` (stereo unspecified): the 50% inhibitory concentration (IC50) in assay [1] is 12.8 µM; in assay [2], 20.9 µM; in assay [3], 21 µM; in [4], 25.3 µM.

For `OC1(C(F)(F)F)CS/C(=N\c2ccc(F)c(Cl)c2)N1c1ccccc1` (stereo unspecified), the IC50 in assay [1] amounted to 16.8 µM; in assay [2], 19 µM; in assay [3], 19.9 µM; in assay [4], 22.9 µM.

As for `OC1(C(F)(F)F)CS/C(=N\c2ccccc2)N1CCN1CCOCC1` (stereo unspecified), the IC50 turned out to be 21.2 µM in assay [1], 23.8 µM in [2], 26.1 µM in assay [3] and 37.4 µM in [4].

Consider `OC1(C(F)(F)F)CS/C(=N\c2ccc(F)cc2)N1c1ccc(F)cc1` (stereo unspecified), for which the IC50 worked out at 14.8 µM in assay [1], 21.3 µM in assay [2], 30.7 µM in assay [3] and 34.1 µM in assay [4].

As for `OC1(C(F)(F)F)CS/C(=N\c2cccc(C(F)(F)F)c2)N1c1cccc(C(F)(F)F)c1` (stereo unspecified), the half-maximal inhibitory concentration (IC50) in assay [1] amounted to 2.84 µM; in assay [2], 3.32 µM; in [3], 3.57 µM; in assay [4] it was 6.69 µM. For the same compound, the Activity is 3.81% in assay [5], 86.61% in [6], 1.71% in assay [7] and 8.15% in [8]. Besides, the result in assay [18], in [9], in [11] and in assay [17] was Active. Also, the inhibition entry in assay [10], in assay [12], in assay [13], in assay [14], in [15] and in assay [16] was “Active” throughout.

In the case of `OC1(C(F)(F)F)CS/C(=N\c2ccccc2)N1C1CC1` (stereo unspecified), the concentration for half-maximal inhibition (IC50) in [1] amounted to 15.1 µM; in assay [2] it was 22.7 µM; in assay [3] it was 24.6 µM; in assay [4], 29.2 µM.

As for `OC1(C(F)(F)F)CS/C(=N\c2ccccc2)N1CCc1ccccn1` (stereo unspecified), the half-inhibitory concentration (IC50) worked out at 20.1 µM in assay [1], 21.5 µM in assay [2], 28.5 µM in assay [3] and 25.9 µM in [4].

With `OC1(C(F)(F)F)CS/C(=N\c2ccccc2)N1Cc1cccs1` (stereo unspecified), the IC50 is 11.1 µM in assay [1], 23.1 µM in assay [2], 24.8 µM in assay [3] and 33.8 µM in assay [4].

Take `COc1ccc(N2/C(=N/c3ccc(F)cc3)SCC2(O)C(F)(F)F)cc1` (stereo unspecified): the IC50 is 4.58 µM in assay [1], 6.64 µM in [2], 6.98 µM in [3] and 28.7 µM in assay [4].
